Assay results published in the NIST ThermoML archive (doi:10.1021/je060271a).
Where “and” joins values, the source holds several entries; their conditions need not be identical. Identical values can stand only once. ± gives the expanded uncertainty stated by the source.

Conditions: Liquid, Vibrating tube method

CCCCCC(=O)OCC(COC(=O)CCCCC)(COC(=O)CCCCC)COC(=O)CCCCC [pentaerythritol tetrahexanoate]
Conditions	mass density
283.14 K, 6785.3 kPa	1008.1 ± 1.2 kg/m3
283.14 K, 6787.6 kPa	1008 ± 1.2 kg/m3 and 1008.2 ± 1.2 kg/m3
283.14 K, 6787.7 kPa	1008.1 ± 1.2 kg/m3
283.14 K, 6787.9 kPa	1008.1 ± 1.2 kg/m3 and 1008 ± 1.2 kg/m3
283.14 K, 30862 kPa	1021 ± 1.2 kg/m3
283.14 K, 30898 kPa	1021 ± 1.2 kg/m3
283.14 K, 30915 kPa	1021 ± 1.2 kg/m3
283.14 K, 32175 kPa	1021.8 ± 1.2 kg/m3
283.14 K, 32194 kPa	1021.7 ± 1.2 kg/m3
283.14 K, 32218 kPa	1021.7 ± 1.2 kg/m3
283.14 K, 32238 kPa	1021.8 ± 1.2 kg/m3
283.14 K, 32258 kPa	1021.8 ± 1.2 kg/m3
283.14 K, 32282 kPa	1021.8 ± 1.2 kg/m3
283.14 K, 32303 kPa	1021.7 ± 1.2 kg/m3
283.14 K, 32324 kPa	1021.8 ± 1.2 kg/m3
283.15 K, 90.7 kPa	1004 ± 1.2 kg/m3
283.15 K, 90.8 kPa	1004.1 ± 1.2 kg/m3
283.15 K, 90.9 kPa	1004.2 ± 1.2 kg/m3
283.15 K, 96 kPa	1004.2 ± 1.2 kg/m3
283.15 K, 96.1 kPa	1004.2 ± 1.2 kg/m3
283.15 K, 96.4 kPa	1004.1 ± 1.2 kg/m3 and 1004.2 ± 1.2 kg/m3
283.15 K, 96.6 kPa	1004.2 ± 1.2 kg/m3
283.15 K, 96.7 kPa	1004.2 ± 1.2 kg/m3
283.15 K, 96.9 kPa	1004.2 ± 1.2 kg/m3
283.15 K, 97.3 kPa	1004.1 ± 1.2 kg/m3
283.15 K, 97.4 kPa	1004.1 ± 1.2 kg/m3 and 1004.2 ± 1.2 kg/m3
283.15 K, 97.6 kPa	1004 ± 1.2 kg/m3 and 1004.2 ± 1.2 kg/m3
283.15 K, 99.3 kPa	1004.2 ± 1.2 kg/m3
283.15 K, 101.4 kPa	1004.2 ± 1.2 kg/m3
283.15 K, 101.6 kPa	1004.2 ± 1.2 kg/m3
283.15 K, 102.1 kPa	1004.2 ± 1.2 kg/m3
283.15 K, 102.2 kPa	1004.1 ± 1.2 kg/m3 and 1004.2 ± 1.2 kg/m3
283.15 K, 106.2 kPa	1004.2 ± 1.2 kg/m3
283.15 K, 106.9 kPa	1004.1 ± 1.2 kg/m3
283.15 K, 107 kPa	1004.2 ± 1.2 kg/m3
283.15 K, 107.4 kPa	1004 ± 1.2 kg/m3
283.15 K, 107.5 kPa	1004.1 ± 1.2 kg/m3
283.15 K, 107.7 kPa	1004.2 ± 1.2 kg/m3
283.15 K, 107.9 kPa	1004.2 ± 1.2 kg/m3 and 1004.3 ± 1.2 kg/m3
283.15 K, 111.3 kPa	1004.1 ± 1.2 kg/m3
283.15 K, 111.5 kPa	1004.2 ± 1.2 kg/m3
283.15 K, 111.7 kPa	1004.3 ± 1.2 kg/m3
283.15 K, 112 kPa	1004.2 ± 1.2 kg/m3
283.15 K, 112.3 kPa	1004.1 ± 1.2 kg/m3
283.15 K, 112.4 kPa	1004.2 ± 1.2 kg/m3
283.15 K, 112.5 kPa	1004.1 ± 1.2 kg/m3
283.15 K, 112.7 kPa	1004.2 ± 1.2 kg/m3 and 1004.1 ± 1.2 kg/m3
283.15 K, 113 kPa	1004.1 ± 1.2 kg/m3 and 1004.2 ± 1.2 kg/m3
283.15 K, 113.2 kPa	1004.3 ± 1.2 kg/m3 and 1004.1 ± 1.2 kg/m3
283.15 K, 113.4 kPa	1004.2 ± 1.2 kg/m3
283.15 K, 113.5 kPa	1004.1 ± 1.2 kg/m3
283.15 K, 113.9 kPa	1004.2 ± 1.2 kg/m3
283.15 K, 114.1 kPa	1004.2 ± 1.2 kg/m3
283.15 K, 114.4 kPa	1004.1 ± 1.2 kg/m3
283.15 K, 114.6 kPa	1004.1 ± 1.2 kg/m3
283.15 K, 114.8 kPa	1004.3 ± 1.2 kg/m3
283.15 K, 114.9 kPa	1004.2 ± 1.2 kg/m3 and 1004.1 ± 1.2 kg/m3
283.15 K, 115.1 kPa	1004.2 ± 1.2 kg/m3
283.15 K, 115.4 kPa	1004.2 ± 1.2 kg/m3
283.15 K, 115.5 kPa	1004.2 ± 1.2 kg/m3
283.15 K, 115.8 kPa	1004.2 ± 1.2 kg/m3
283.15 K, 116 kPa	1004.2 ± 1.2 kg/m3
283.15 K, 116.3 kPa	1004.2 ± 1.2 kg/m3
283.15 K, 116.5 kPa	1004.1 ± 1.2 kg/m3
283.15 K, 116.7 kPa	1004.2 ± 1.2 kg/m3
283.15 K, 116.8 kPa	1004.2 ± 1.2 kg/m3
283.15 K, 117.2 kPa	1004.1 ± 1.2 kg/m3
283.15 K, 117.3 kPa	1004.2 ± 1.2 kg/m3 and 1004.3 ± 1.2 kg/m3
283.15 K, 117.5 kPa	1004.2 ± 1.2 kg/m3
283.15 K, 117.9 kPa	1004.2 ± 1.2 kg/m3 and 1004.3 ± 1.2 kg/m3
283.15 K, 118 kPa	1004.1 ± 1.2 kg/m3
283.15 K, 118.2 kPa	1004.2 ± 1.2 kg/m3
283.15 K, 118.4 kPa	1004.2 ± 1.2 kg/m3
283.15 K, 118.7 kPa	1004.2 ± 1.2 kg/m3
283.15 K, 118.9 kPa	1004.2 ± 1.2 kg/m3
283.15 K, 119.1 kPa	1004.4 ± 1.2 kg/m3 and 1004.2 ± 1.2 kg/m3
283.15 K, 119.3 kPa	1004 ± 1.2 kg/m3
283.15 K, 119.6 kPa	1004.2 ± 1.2 kg/m3
283.15 K, 119.8 kPa	1004.1 ± 1.2 kg/m3
283.15 K, 119.9 kPa	1004.3 ± 1.2 kg/m3 and 1004.2 ± 1.2 kg/m3
283.15 K, 120.1 kPa	1004.1 ± 1.2 kg/m3
283.15 K, 121.3 kPa	1004.2 ± 1.2 kg/m3
283.15 K, 121.7 kPa	1004.2 ± 1.2 kg/m3 and 1004.1 ± 1.2 kg/m3
283.15 K, 122 kPa	1004.3 ± 1.2 kg/m3
283.15 K, 122.4 kPa	1004.1 ± 1.2 kg/m3
283.15 K, 122.5 kPa	1004.3 ± 1.2 kg/m3
283.15 K, 122.9 kPa	1004.1 ± 1.2 kg/m3
283.15 K, 123 kPa	1004.2 ± 1.2 kg/m3
283.15 K, 123.2 kPa	1004.2 ± 1.2 kg/m3
283.15 K, 123.6 kPa	1004.3 ± 1.2 kg/m3 and 1004.2 ± 1.2 kg/m3
283.15 K, 123.7 kPa	1004.1 ± 1.2 kg/m3
283.15 K, 123.9 kPa	1004.2 ± 1.2 kg/m3 and 1004.1 ± 1.2 kg/m3
283.15 K, 124.3 kPa	1004.2 ± 1.2 kg/m3
283.15 K, 124.6 kPa	1004 ± 1.2 kg/m3
283.15 K, 124.9 kPa	1004.1 ± 1.2 kg/m3
283.15 K, 125 kPa	1004.2 ± 1.2 kg/m3
283.15 K, 125.1 kPa	1004.1 ± 1.2 kg/m3
283.15 K, 125.3 kPa	1004.2 ± 1.2 kg/m3
283.15 K, 125.8 kPa	1004 ± 1.2 kg/m3
283.15 K, 126 kPa	1004.3 ± 1.2 kg/m3
283.15 K, 126.2 kPa	1004.2 ± 1.2 kg/m3 and 1004.1 ± 1.2 kg/m3
283.15 K, 127.9 kPa	1004.2 ± 1.2 kg/m3
283.15 K, 128.1 kPa	1004.3 ± 1.2 kg/m3
283.15 K, 128.4 kPa	1004.3 ± 1.2 kg/m3
283.15 K, 134 kPa	1004.1 ± 1.2 kg/m3
283.15 K, 134.1 kPa	1004.2 ± 1.2 kg/m3
283.15 K, 134.3 kPa	1004.1 ± 1.2 kg/m3
283.15 K, 134.5 kPa	1004.3 ± 1.2 kg/m3
283.15 K, 135 kPa	1004.2 ± 1.2 kg/m3
283.15 K, 135.2 kPa	1004.2 ± 1.2 kg/m3
283.15 K, 135.3 kPa	1004.1 ± 1.2 kg/m3
283.15 K, 136 kPa	1004.2 ± 1.2 kg/m3
283.15 K, 136.4 kPa	1004.2 ± 1.2 kg/m3
283.15 K, 136.6 kPa	1004.2 ± 1.2 kg/m3 and 1004.1 ± 1.2 kg/m3
283.15 K, 136.7 kPa	1004.3 ± 1.2 kg/m3
283.15 K, 136.9 kPa	1004.1 ± 1.2 kg/m3
283.15 K, 137.4 kPa	1004.2 ± 1.2 kg/m3
283.15 K, 137.6 kPa	1004.3 ± 1.2 kg/m3 and 1004.2 ± 1.2 kg/m3
283.15 K, 137.9 kPa	1004.3 ± 1.2 kg/m3
283.15 K, 138.1 kPa	1004.2 ± 1.2 kg/m3
283.15 K, 138.8 kPa	1004.2 ± 1.2 kg/m3
283.15 K, 139 kPa	1004.1 ± 1.2 kg/m3 and 1004.3 ± 1.2 kg/m3
283.15 K, 139.2 kPa	1004.3 ± 1.2 kg/m3 and 1004.2 ± 1.2 kg/m3
283.15 K, 139.3 kPa	1004.2 ± 1.2 kg/m3
283.15 K, 139.7 kPa	1004.2 ± 1.2 kg/m3 and 1004.1 ± 1.2 kg/m3 and 1004.3 ± 1.2 kg/m3
283.15 K, 140.4 kPa	1004.3 ± 1.2 kg/m3
283.15 K, 140.6 kPa	1004.3 ± 1.2 kg/m3
283.15 K, 140.7 kPa	1004.2 ± 1.2 kg/m3
283.15 K, 141.1 kPa	1004.2 ± 1.2 kg/m3
283.15 K, 141.4 kPa	1004.2 ± 1.2 kg/m3
283.15 K, 141.6 kPa	1004.2 ± 1.2 kg/m3
283.15 K, 142.1 kPa	1004.3 ± 1.2 kg/m3
283.15 K, 142.5 kPa	1004.2 ± 1.2 kg/m3
283.15 K, 143 kPa	1004.2 ± 1.2 kg/m3 and 1004.1 ± 1.2 kg/m3
283.15 K, 143.2 kPa	1004.2 ± 1.2 kg/m3
283.15 K, 144 kPa	1004.2 ± 1.2 kg/m3 and 1004.1 ± 1.2 kg/m3
283.15 K, 144.2 kPa	1004.3 ± 1.2 kg/m3
283.15 K, 144.4 kPa	1004.1 ± 1.2 kg/m3
283.15 K, 144.7 kPa	1004.1 ± 1.2 kg/m3
283.15 K, 145.4 kPa	1004.2 ± 1.2 kg/m3
283.15 K, 145.9 kPa	1004.3 ± 1.2 kg/m3
283.15 K, 146.3 kPa	1004.2 ± 1.2 kg/m3
283.15 K, 146.6 kPa	1004.2 ± 1.2 kg/m3
283.15 K, 147.3 kPa	1004.2 ± 1.2 kg/m3
